From publication PMC12081876, “Identification of PTGR2 inhibitors as a new therapeutic strategy for diabetes and obesity” (EMBO Molecular Medicine, 2025)

How the values were obtained:
[1] = tested on: murine PPARγ Ser273 phosphorylation; assay: TNFα-induced PPARγ Ser273 phosphorylation in 3T3-L1 adipocytes; format: cell-based; details: cultured murine adipocytes
Procedure: For cell-based assay, 3T3-L1 cells were induced differentiation one day after achieving 100% confluence with 0.5 mM IBMX, 1 µm dexamethasone and 10 μg/mL insulin in DMEM containing 10% FBS for 2 days and maintained differentiation in DMEM supplemented with 10 μg/mL insulin and 10% FBS for 4 days. The medium was changed every 2 days. […] Then TNFα was added to induce PPARγ phosphorylation in a concentration of 50 ng/ml for 15 min. Cells were harvested and lysed in RIPA buffer supplemented with 1X cOmplete™, EDTA-free Protease Inhibitor Cocktail (cat. no. 04693132001, Roche) and 1X PhosSTOP™ (cat. no. 4906845001, Roche).
The protein concentrations of tissue lysates were measured by Bradford reagent (cat. no. BP500-0006, Bio-Rad). The protein samples were mixed with 6X sample buffer (0.3 M Tris-HCl, pH 6.8, 0.6 M DTT, 12% SDS, 0.6% Bromophenel blue and 60% glycerol) and heated at 70 °C for 5 min. 30 μg of each sample were separated by 10% SDS-PAGE gel and were transferred to PVDF membrane. The membrane was blocked by 3% BSA in Tris-buffered saline containing 0.1% Tween-20 for 1 h at room temperature and incubated with primary antibody at 4 °C overnight. […] Protein expression of phospho-PPARγ was analyzed using ImageJ software and normalized against PPARγ and GAPDH.

PPARγ lysine acetylation = assay: Cell-based PPARγ acetylation assay; design: species or system mouse; details: cultured adipocytes
Procedure: One day after achieving 100% confluence, 3T3-L1 cells were induced differentiation with 0.5 mM IBMX, 1 µm dexamethasone and 10 μg/mL insulin in DMEM containing 10% FBS for 2 days and maintained differentiation in DMEM supplemented with 10 μg/mL insulin and 10% FBS for 6 days. The medium was changed every 2 days. […] Cells were harvested and lysed in RIPA buffer supplemented with 1X cOmplete™, EDTA-free Protease Inhibitor Cocktail (cat. no. 04693132001, Roche) and 1X PhosSTOP™ (cat. no. 4906845001, Roche). The protein concentrations of cell lysates were measured by Bradford reagent (cat. no. BP500-0006, Bio-Rad). The protein samples were performed immunoprecipitation with magnetic beads (Protein G Mag Sepharose™, Cytiva). Briefly, 200 μg of protein samples were incubated in 500 μl of PBS buffer containing 1 μg of anti-PPARγ antibody or 1 μg of anti-rabbit IgG antibody with gentle rotation at 4 °C overnight. On the next day, PBS-washed beads were incubated with overnight mixture of protein sample and antibody at 4 °C for 1 h with gentle rotation. Then the beads were washed three times with 1000 μl of PBS and harvested with centrifugation at 4 °C and 10,000 × g for 5 min. […] Acetylation level of PPARγ was analyzed using Image J software and normalized against PPARγ.

mPPARγ LBD C313A mutant = target: T1, mPPARγ LBD C313A mutant (Mus musculus, UniProt P37238, C313A); assay: Native mass spectrometry ligand binding, mPPARγ LBD C313A; design: species or system murine
T1 construct: mPPARγ LBD C313A mutant
Procedure: Wide-type mPPARγ ligand binding domain (LBD), mPPARγ LBD C313A mutant, and mPPARγ LBD H351A mutant were mixed together in a 1:1:1 molar ratio and then incubated with 15-keto-PEG2 or pioglitazone in a 1:10 molar ratio for 5 min at room temperature, respectively. The protein mixture was buffer-exchanged into 500 mM ammonium acetate buffer pH 7.5 using 7 K Zeba™ Spin Desalting Column (cat. no, 89877, Thermo) and immediately introduced into a modified Q-Exactive mass spectrometer (Thermo). The sets of optimized parameters were applied to analyze the ligand binding, including the higher-energy collisional dissociation (HCD) energy of 20 V; spray voltage, 1.1 kV; capillary temperature, 200 °C; S-lens RF level, 200; and resolution, 12,500 at m/z 400. Spectra were acquired and processed manually using Thermo Xcalibur Qual Browser (version 4.4.16.14). The relative percentage of compound-bound forms was quantified by the UniDec software and the degree of effector coupling was calculated by normalizing the relative percentage of bound forms to the sum of the percentage of unbound and bound forms.

hPTGR2 = hPTGR2 (Homo sapiens, UniProt Q8N8N7); assay: Conversion of 15-keto-PGE2 by recombinant human PTGR2 protein; format: biochemical; design: made in house; details: incubated with recombinant human PTGR2 protein
[2] = tested on: HFHSD-fed obese C57BL6/J mice; assay: Hepatic steatosis (H&E) and hepatic triglycerides content; format: in vivo, mouse; details: 100 mg/kg/day oral, vs vehicle
Procedure: Tissues were fixed in 4% paraformaldehyde and then embedded in paraffin before sectioning and staining. The stained sections were scanned and analyzed using a MIRAX viewer (http://www.zeiss.de/mirax) and Image J software (http://rsbwed.nih.gov/ij/).
Approximately 80 mg of liver tissue was homogenized in 1800 μl of chloroform/methanol (2/1). Then, 360 μl of H2O was added. The homogenates were centrifuged at 2000 rpm for 10 min. The lower 200-μl layer was added with 100 μl of chloroform with 4% Triton X-100 and dried in a chemical hood. The dried pellet was redissolved with 200 μl of H2O and was determined the triglyceride concentrations with Wako TG LabAssay kit (cat. no. 290-63701, Wako).

T1 sequence (P37238 238-503 C313A limits assumed): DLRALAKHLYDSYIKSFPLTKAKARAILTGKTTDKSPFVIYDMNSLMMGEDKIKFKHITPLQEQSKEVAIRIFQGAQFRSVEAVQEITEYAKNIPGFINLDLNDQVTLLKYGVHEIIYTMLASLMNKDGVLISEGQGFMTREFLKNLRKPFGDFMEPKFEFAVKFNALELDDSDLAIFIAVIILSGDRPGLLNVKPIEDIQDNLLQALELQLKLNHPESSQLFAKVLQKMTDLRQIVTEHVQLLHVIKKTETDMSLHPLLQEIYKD
Chain of hPTGR2 (Q8N8N7 whole entry): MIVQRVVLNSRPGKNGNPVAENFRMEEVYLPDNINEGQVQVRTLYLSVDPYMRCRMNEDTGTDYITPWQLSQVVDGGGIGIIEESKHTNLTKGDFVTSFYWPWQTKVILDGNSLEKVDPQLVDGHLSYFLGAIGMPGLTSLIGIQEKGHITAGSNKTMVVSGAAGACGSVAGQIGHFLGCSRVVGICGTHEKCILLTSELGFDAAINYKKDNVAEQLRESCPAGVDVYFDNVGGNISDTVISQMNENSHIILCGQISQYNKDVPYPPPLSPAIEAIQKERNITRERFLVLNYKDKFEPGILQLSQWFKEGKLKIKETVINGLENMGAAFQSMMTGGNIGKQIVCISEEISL

| 15-keto-PGE2 converted into 13,14-dihydro-15-keto-PGE2 (hPTGR2) | Compound | phosphorylation of PPARγ Ser273 [1] | acetylation of the PPARγ LBD (PPARγ lysine acetylation) | effect of C313A mutation on binding (native MS) (mPPARγ LBD C313A mutant) | extent of hepatic steatosis [2] | hepatic triglycerides content [2] |
| --- | --- | --- | --- | --- | --- | --- |
| 99.83% | CCCCCC(=O)/C=C/[C@H]1[C@H](O)CC(=O)[C@@H]1C/C=C\CCCC(=O)O [15-keto-PGE2, 15-keto-prostaglandin E2] | dose-dependently reduced phosphorylation of Ser273 | no altered acetylation of the PPARγ LBD | almost completely abolished 15-keto-PGE2 binding | – | – |
| – | Cc1[nH]c2nc(C(C)N3CCN(c4ccccc4)CC3)nn2c(=O)c1Cc1ccc(F)cc1 (stereo not drawn) [BPRPT0245] | – | – | – | significantly decreased | significantly decreased |
